Reference: patent publication US20100267827A1, “PHENYL-PRENYL-ETHER DERIVATIVES FOR THE TREATMENT OF COGNITIVE, NEURODEGENERATIVE OR NEURONAL DISEASES OR DISORDERS” (NOSCIRA, S.A., priority 2006, published 2010)

Assays:
[1] = target: T1, rhBACE-1 β-Secretase recombinant human (Homo sapiens, UniProt P56817); assay: BACE assay (FRET); type: biochemical; settings: percentage of enzyme activity remaining
T1 construct: purchased R&D Systems 931-AS
From the text: The aim of this assay is to determine if a compound, either synthetic or of marine origin, is a BACE-1 inhibitor, to avoid the formation of Aβ. This assay is based on FRET technology (Fluorescence Resonance Energy Transfer). FRET is used to measure cleavage of a peptide substrate, among other uses. […] When a substrate peptide cleavage occurs, the energy balance is broken and all the donor fluorescence can be observed. The increase in fluorescence is linearly related to the rate of proteolysis (Gordon, G W et al., 1998). In this assay the reaction occurs between an enzyme, purified BACE-1, and a fluorogenic peptidic substrate who present the “Swedish mutation”. The peptide cleavage by BACE-1 produces fluorescence energy and enzymatic activity can be quantified.
The reagents which are used in this assay are the following:
rhBACE-1 β-Secretase recombinant human (R&D Systems. Ref. 931-AS).
Fluorogenic Peptide Substrate IV (R&D Systems. Ref. ES004).
Beta-SECRETASE INHIBITOR H-4848. (BACHEM. Ref. H-4848.0001).
The assay is carried out in a 96 wells microplate. The final concentration of substrate is 3.5 μM per well, and the enzyme concentration is 0.5 μg/ml. The final volume of the assay is 100 μl per well and all reagents are diluted in Reaction Buffer. The compounds are tested at a concentration of 10^−5 and 10^−6 M. The control in the assay is the commercial inhibitor R-Secretase inhibitor H-4848 from BACHEM, which is tested at 300 nM. All the samples and controls are studied by duplicate.
The plate is mixed gently and changes in the fluorescence are measured using a fluorimeter plate reader, with 320 nm excitation filter and 405 nm emission filter. The temperature should be preferably maintained between 25 and 30° C. Measurements are carried out every ten minutes during an hour. The first measure is subtracted from the last to calculate the fluorescence increase, evaluating the enzymatic activity. The 100% activity is calculated as the mean of the results of wells without sample or inhibitor.
In the cases where abnormal effects in fluorescence were detected, BACE inhibition activity was assayed using BACE-1 (beta-Secretase) FRET ASSAY KIT (Invitrogen, Ref. P2985). Fluorescence was measured with a fluorimeter plate reader, with 544 nm excitation filter and 580 nm emission filter.
(§1) The compounds of formula (I) of the present invention where submitted to the above indicated assays, in order to determine both their GSK-3 inhibition activity and BACE activity inhibition. The results are indicated in Table I, in percentage of the respective enzyme activity.

[2] = target: recombinant human glycogen synthase kinase 3 beta (Homo sapiens, UniProt P49841); assay: GSK-3 beta inhibition assay; type: biochemical; settings: 0.5 h, percentage of enzyme activity remaining; for remaining activity at 25 µM: 25 μM compound; for remaining activity at 50 µM: 50 μM compound
Procedure: The GSK-3 beta activity of the compounds of formula (I) according to the present invention was determined by incubation of a mixture of recombinant human GSK-3 enzyme, a phosphate source and GSK-3 substrate in the presence and in the absence of the corresponding test compound, and by measuring the GSK-3 activity of this mixture. The compounds where tested at final concentrations of 25 and 50 μM.
Recombinant human glycogen synthase kinase 3 beta was assayed in MOPS 11 mM, pH 7.4, EDTA 0.2 mM, EGTA 1.25 mM, MgCl2 26.25 mM and sodium orthovanadate 0.25 mM in the presence of 62.5 μM of Phospho-Glycogen Synthase Peptide-2 (GS-2), 0.5 μCi gamma-^33P-ATP and unlabelled ATP at a final concentration of 12.5 μM. The final assay volume was 20 μl. After incubation for 30 minutes at 30° C., 15 μl aliquots were spotted onto P81 phosphocellulose papers. Filters were washed four times for at least 10 minutes each and counted with 1.5 ml of scintillation cocktail in a scintillation counter.
as §1

Sequence of recombinant human glycogen synthase kinase 3 beta (P49841 whole entry): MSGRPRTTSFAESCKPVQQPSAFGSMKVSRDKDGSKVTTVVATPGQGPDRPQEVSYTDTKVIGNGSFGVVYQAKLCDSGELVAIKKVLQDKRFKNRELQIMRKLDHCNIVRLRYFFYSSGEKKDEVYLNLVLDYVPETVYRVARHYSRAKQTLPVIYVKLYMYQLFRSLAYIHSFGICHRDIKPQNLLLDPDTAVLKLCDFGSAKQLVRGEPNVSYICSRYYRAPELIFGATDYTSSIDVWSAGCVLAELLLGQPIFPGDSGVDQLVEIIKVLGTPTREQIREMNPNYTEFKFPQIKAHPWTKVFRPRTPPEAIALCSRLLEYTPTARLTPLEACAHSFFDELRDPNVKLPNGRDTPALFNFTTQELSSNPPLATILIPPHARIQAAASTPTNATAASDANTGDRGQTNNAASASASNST
T1 sequence (P56817 46-457 limits assumed): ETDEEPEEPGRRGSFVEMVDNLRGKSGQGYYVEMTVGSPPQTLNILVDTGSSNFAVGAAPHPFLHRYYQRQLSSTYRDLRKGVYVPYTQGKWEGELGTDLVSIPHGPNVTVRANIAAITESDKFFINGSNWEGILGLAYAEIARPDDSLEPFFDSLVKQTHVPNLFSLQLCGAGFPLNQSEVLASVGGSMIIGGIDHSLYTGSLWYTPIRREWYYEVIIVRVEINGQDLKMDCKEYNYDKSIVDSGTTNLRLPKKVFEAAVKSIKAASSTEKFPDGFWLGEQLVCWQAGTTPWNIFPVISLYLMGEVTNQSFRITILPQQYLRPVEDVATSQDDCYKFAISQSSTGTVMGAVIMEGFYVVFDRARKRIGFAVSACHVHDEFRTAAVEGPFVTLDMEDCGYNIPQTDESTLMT

## COC(=O)c1ccc(OC)c(OC/C=C(\C)CCC=C(C)C)c1 [Compound 2, 3-(3,7-Dimethyl-octa-2,6-dienyloxy)-4-methoxy-benzoic acid methyl ester]
[1]; 1 μM compound
  % of BACE activity: 100%
[1]; 10 μM compound
  % of BACE activity: 18.5 ± 12.1%
[2]
  remaining activity at 25 µM: 88.1%
  remaining activity at 50 µM: 68%

## COC(=O)c1cccc(OC/C=C(\C)CCC=C(C)C)c1 [Compound 5]
[1]; 1 μM compound
  % of BACE activity: 13.3%
[1]; 10 μM compound
  % of BACE activity: 0%
[2]
  remaining activity at 25 µM: 94.4%
  remaining activity at 50 µM: 80.7%

## CC(C)=CCC/C(C)=C/COc1cccc(C(=O)O)c1 [Compound 6]
[1]; 1 μM compound
  % of BACE activity: 87.5 ± 17%
[1]; 10 μM compound
  % of BACE activity: 36.5 ± 38%
[2]
  remaining activity at 25 µM: 70.3%
  remaining activity at 50 µM: 80%

## COC(=O)c1ccc(N)c(OC/C=C(\C)CCC=C(C)C)c1 [Compound 8, 4-Amino-3-(3,7-dimethyl-octa-2,6-dienyloxy)-benzoic acid methyl ester]
[1]; 1 μM compound
  % of BACE activity: 100%
[1]; 10 μM compound
  % of BACE activity: 81 ± 8%
[2]
  remaining activity at 25 µM: 85.6%
  remaining activity at 50 µM: 71%

## COC(=O)c1ccc(N)c(OC/C=C(\C)CC/C=C(\C)CCC=C(C)C)c1 [Compound 9, 4-Amino-3-(3,7,11-trimethyl-dodeca-2,6,10-trienyloxy)-benzoic acid methyl ester]
[1]; 1 μM compound
  % of BACE activity: 100%
[1]; 10 μM compound
  % of BACE activity: 80 ± 13%
[2]
  remaining activity at 25 µM: 91.7%
  remaining activity at 50 µM: 59.5%

## COC(=O)c1ccc(OC)c(OC/C=C(\C)CCC=C(C)C)c1C/C=C(\C)CCC=C(C)C [Compound 10]
[1]; 1 μM compound
  % of BACE activity: 86.5 ± 5%
[1]; 10 μM compound
  % of BACE activity: 82 ± 10%
[2]
  remaining activity at 25 µM: 56%
  remaining activity at 50 µM: 19.5%

## COc1ccc(C(=O)OC/C=C(\C)CCC=C(C)C)cc1OC/C=C(\C)CCC=C(C)C [Compound 11, 3-(3,7-Dimethyl-octa-2,6-dienyloxy)-4-methoxy-benzoic acid 3,7-dimethyl-octa-2,6-dienyl ester]
[1]; 1 μM compound
  % of BACE activity: 48 ± 2%
[1]; 10 μM compound
  % of BACE activity: 8 ± 3%
[2]
  remaining activity at 25 µM: 84.8%
  remaining activity at 50 µM: 58.2%

## COc1ccc(C(=O)NC/C=C(\C)CCC=C(C)C)cc1OC/C=C(\C)CCC=C(C)C [Compound 12, N-(3,7-Dimethyl-octa-2,6-dienyl)-3-(3,7-dimethyl-octa-2,6-dienyloxy)-4-methoxy-benzamide]
[1]; 1 μM compound
  % of BACE activity: 99 ± 7%
[1]; 10 μM compound
  % of BACE activity: 42 ± 18%
[2]
  remaining activity at 25 µM: 47.5%
  remaining activity at 50 µM: 27.9%

## COc1ccc(C(=O)OCC=C(C)C)cc1OC/C=C(\C)CCC=C(C)C [Compound 13]
[1]; 1 μM compound
  % of BACE activity: 49 ± 5%
[1]; 10 μM compound
  % of BACE activity: 0%
[2]
  remaining activity at 25 µM: 54.6%
  remaining activity at 50 µM: 7.36%

## CC(C)=CCC/C(C)=C/CC/C(C)=C/COc1cc(C(=O)O)ccc1N [Compound 17, 4-Amino-3-(3,7,11-trimethyl-dodeca-2,6,10-trienyloxy)-benzoic acid]
[1]; 1 μM compound
  % of BACE activity: 100%
[1]; 10 μM compound
  % of BACE activity: 79 ± 13%
[2]
  remaining activity at 25 µM: 90.4%
  remaining activity at 50 µM: 65.5%

## COC(=O)c1ccc(NC(C)=O)c(OC/C=C(\C)CCC=C(C)C)c1 [Compound 19, 4-Acetylamino-3-(3,7-dimethyl-octa-2,6-dienyloxy)-benzoic acid methyl ester]
[1]; 1 μM compound
  % of BACE activity: 3.5 ± 5%
[1]; 10 μM compound
  % of BACE activity: 0%
[2]
  remaining activity at 50 µM: 85.1%

## COC(=O)c1ccc(NC(C)=O)c(OC/C=C(\C)CC/C=C(\C)CCC=C(C)C)c1 [Compound 20]
[1]; 1 μM compound
  % of BACE activity: 2 ± 4.5%
[1]; 10 μM compound
  % of BACE activity: 0%
[2]
  remaining activity at 25 µM: 74.4%
  remaining activity at 50 µM: 40%

## CC(=O)Nc1ccc(C(=O)O)cc1OC/C=C(\C)CC/C=C(\C)CCC=C(C)C [Compound 21, 4-Acetylamino-3-(3,7,11-trimethyl-dodeca-2,6,10-trienyloxy)-benzoic acid]
[1]; 1 μM compound
  % of BACE activity: 68.5 ± 0.7%
[1]; 10 μM compound
  % of BACE activity: 29 ± 10%
[2]
  remaining activity at 25 µM: 90%
  remaining activity at 50 µM: 57.5%

## COCOC(=O)c1ccc(OC)c(OC/C=C(\C)CCC=C(C)C)c1 [Compound 23, 3-(3,7-Dimethyl-octa-2,6-dienyloxy)-4-methoxy-benzoic acid methoxymethyl ester]
[1]; 1 μM compound
  % of BACE activity: 61 ± 133%
[1]; 10 μM compound
  % of BACE activity: 0%
[2]
  remaining activity at 25 µM: 53%
  remaining activity at 50 µM: 18.6%

## CC(C)=CCC/C(C)=C/CC/C(C)=C/COc1ccc(C(=O)O)cc1OC/C=C(\C)CC/C=C(\C)CCC=C(C)C [Compound 24, 3,4-Bis-(3,7,11-trimethyl-dodeca-2,6,10-trienyloxy)-benzoic acid]
[1]; 1 μM compound
  % of BACE activity: 30 ± 7%
[1]; 10 μM compound
  % of BACE activity: 26 ± 13%
[2]
  remaining activity at 25 µM: 12.4%
  remaining activity at 50 µM: 4.55%

## CCOC(=O)c1ccc(O)c(OC/C=C(\C)CCC=C(C)C)c1 [Compound 27]
[1]; 1 μM compound
  % of BACE activity: 100%
[1]; 10 μM compound
  % of BACE activity: 50 ± 16%
[2]
  remaining activity at 25 µM: 48.3%
  remaining activity at 50 µM: 7.61%

## CC(C)=CCC/C(C)=C/COc1cc(C(=O)O)ccc1O [Compound 28]
[1]; 1 μM compound
  % of BACE activity: 100%
[1]; 10 μM compound
  % of BACE activity: 89 ± 6%
[2]
  remaining activity at 25 µM: 90.8%
  remaining activity at 50 µM: 95.7%
